Results reported in ChEMBL document CHEMBL1140814 (Bioorg Med Chem Lett, 2008).

Legend:
[1] = molecular target: T1, Muscarinic acetylcholine receptor M2 (Homo sapiens, UniProt P08172); experiment: Displacement of [3H]NMS from human cloned muscarinic M2 receptor expressed in CHO cells; type: cell-based
T1 sequence (P08172 whole entry): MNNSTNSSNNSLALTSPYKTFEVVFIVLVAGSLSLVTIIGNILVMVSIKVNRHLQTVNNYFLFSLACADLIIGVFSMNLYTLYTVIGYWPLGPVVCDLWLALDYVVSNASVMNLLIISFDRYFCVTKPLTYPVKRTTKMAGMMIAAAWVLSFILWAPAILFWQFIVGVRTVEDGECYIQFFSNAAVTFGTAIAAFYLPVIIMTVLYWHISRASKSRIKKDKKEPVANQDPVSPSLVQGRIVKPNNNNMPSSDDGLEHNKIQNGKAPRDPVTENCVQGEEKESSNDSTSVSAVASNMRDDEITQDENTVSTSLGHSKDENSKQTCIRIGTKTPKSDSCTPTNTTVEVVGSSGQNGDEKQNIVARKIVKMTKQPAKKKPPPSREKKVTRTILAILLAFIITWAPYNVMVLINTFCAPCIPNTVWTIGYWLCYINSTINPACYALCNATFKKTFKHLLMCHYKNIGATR

[2] = molecular target: T2, Muscarinic acetylcholine receptor M4 (Homo sapiens, UniProt P08173); experiment: Displacement of [3H]NMS from human cloned muscarinic M4 receptor expressed in CHO cells; type: cell-based
T2 sequence (P08173 whole entry): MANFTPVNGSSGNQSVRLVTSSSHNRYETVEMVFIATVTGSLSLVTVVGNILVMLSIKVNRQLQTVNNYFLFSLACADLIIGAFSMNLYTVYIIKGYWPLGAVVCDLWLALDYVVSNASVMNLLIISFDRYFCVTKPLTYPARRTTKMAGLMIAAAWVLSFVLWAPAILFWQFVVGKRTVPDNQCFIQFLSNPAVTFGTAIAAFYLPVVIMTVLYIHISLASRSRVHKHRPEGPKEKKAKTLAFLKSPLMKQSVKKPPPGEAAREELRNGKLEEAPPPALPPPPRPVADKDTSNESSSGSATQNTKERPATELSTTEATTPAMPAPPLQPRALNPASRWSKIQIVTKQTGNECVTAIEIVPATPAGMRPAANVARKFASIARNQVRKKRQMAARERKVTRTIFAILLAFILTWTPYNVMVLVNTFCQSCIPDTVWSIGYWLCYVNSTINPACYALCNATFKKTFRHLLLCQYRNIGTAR

[3] = Intrinsic activity at muscarinic M4 receptor in guinea-pig lung strips assessed as ratio of agonist activity to activity of arecaidine propargyl ester; type: functional, Cavia porcellus
[4] = molecular target: Muscarinic acetylcholine receptor M3 (Cavia porcellus) (UniProt Q8VH26); experiment: Intrinsic activity at muscarinic M3 receptor in guinea-pig ileum assessed as ratio of agonist activity to activity of arecaidine propargyl ester; type: functional, tissue-based
[5] = molecular target: T3, Muscarinic acetylcholine receptor M5 (Homo sapiens, UniProt P08912); experiment: Displacement of [3H]NMS from human cloned muscarinic M5 receptor expressed in CHO cells; type: cell-based
T3 sequence (P08912 whole entry): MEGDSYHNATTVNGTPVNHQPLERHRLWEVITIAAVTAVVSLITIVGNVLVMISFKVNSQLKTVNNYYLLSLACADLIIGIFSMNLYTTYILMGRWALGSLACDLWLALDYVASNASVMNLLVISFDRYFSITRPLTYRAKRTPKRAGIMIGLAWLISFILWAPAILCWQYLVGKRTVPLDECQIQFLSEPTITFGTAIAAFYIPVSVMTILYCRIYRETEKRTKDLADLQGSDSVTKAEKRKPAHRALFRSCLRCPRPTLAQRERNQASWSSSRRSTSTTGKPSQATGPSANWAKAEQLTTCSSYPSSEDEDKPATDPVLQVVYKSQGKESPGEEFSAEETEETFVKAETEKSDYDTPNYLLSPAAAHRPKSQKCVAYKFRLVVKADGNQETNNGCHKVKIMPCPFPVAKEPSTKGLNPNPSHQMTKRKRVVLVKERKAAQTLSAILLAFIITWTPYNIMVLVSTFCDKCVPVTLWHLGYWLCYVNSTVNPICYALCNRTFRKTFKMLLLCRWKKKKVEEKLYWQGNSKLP

[6] = Intrinsic activity at muscarinic M2 receptor in guinea-pig stimulated left atria assessed as ratio of agonist activity to activity of arecaidine propargyl ester; type: functional, Cavia porcellus
[7] = Antagonist activity at muscarinic M1 receptor in rabbit vas deferens up to 10 uM; type: functional, Oryctolagus cuniculus
[8] = Intrinsic activity at muscarinic M1 receptor in rabbit stimulated vas deferens assessed as ratio of agonist activity to activity of McN-A-343; type: functional, Oryctolagus cuniculus

Sequence of Muscarinic acetylcholine receptor M3 (Cavia porcellus) (Q8VH26 1-587): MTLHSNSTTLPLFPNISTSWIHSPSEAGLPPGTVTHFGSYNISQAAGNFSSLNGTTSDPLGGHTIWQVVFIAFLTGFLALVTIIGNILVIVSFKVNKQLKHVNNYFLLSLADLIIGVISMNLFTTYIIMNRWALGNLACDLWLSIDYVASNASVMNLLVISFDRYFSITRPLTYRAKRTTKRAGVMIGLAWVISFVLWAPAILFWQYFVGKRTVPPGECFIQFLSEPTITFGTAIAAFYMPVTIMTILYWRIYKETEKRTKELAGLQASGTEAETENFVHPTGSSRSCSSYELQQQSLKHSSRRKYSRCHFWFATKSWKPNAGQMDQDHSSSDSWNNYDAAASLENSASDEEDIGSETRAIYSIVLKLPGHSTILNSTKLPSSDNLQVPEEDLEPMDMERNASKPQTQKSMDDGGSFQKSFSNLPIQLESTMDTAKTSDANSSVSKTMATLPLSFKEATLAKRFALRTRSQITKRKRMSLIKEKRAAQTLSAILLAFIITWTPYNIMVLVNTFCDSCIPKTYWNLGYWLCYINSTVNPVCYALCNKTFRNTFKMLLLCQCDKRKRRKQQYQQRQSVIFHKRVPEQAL

| Compound | Ki [1] [µM] | Ki [2] [µM] | Intrinsic activity [3] | pD2 [3] | pD2 [4] | Ki [5] [µM] | Intrinsic activity [6] | pD2 [6] | pD2 [7] | pD2 [8] | Intrinsic activity [8] | Intrinsic activity [4] |
| --- | --- | --- | --- | --- | --- | --- | --- | --- | --- | --- | --- | --- |
| C[C@@H]1COC[C@@H](C[N+](C)(C)C)O1.[I-] | 61.7 | > 100 | 0.42 | 5.22 | 4.54 | 87.1 | 0.62 | 5.27 |  |  |  |  |
| CC1COCC(C[N+](C)(C)C)O1 (racemic; form 1) |  |  |  |  | 7.34 |  |  |  |  |  |  |  |
| C[C@@H]1COC[C@H](C[N+](C)(C)C)O1.[I-] | 6.92 | 69.2 |  |  | 6.53 | 44.7 | 1 |  | <5 |  |  |  |
| CC1COCC(C[N+](C)(C)C)O1.[I-] (racemic; form 2) | 4.9 | 87.1 |  |  |  | 67.6 |  |  |  | 5.08 |  |  |
| C[C@H]1COC[C@@H](C[N+](C)(C)C)O1.[I-] | 1.26 | 9.77 | 1 |  | 7.65 | 4.57 |  |  |  | 6.78 | 1 |  |
| C[C@H]1COC[C@H](C[N+](C)(C)C)O1.[I-] | 5.25 | 45.7 | 0.77 | 5.79 | 6.26 |  | 0.9 | 6.18 |  |  |  |  |
| CC1OC(C[N+](C)(C)C)CC1O (racemic) |  |  |  |  | 7.29 |  | 1 | 6.72 |  |  |  | 1 |
| CC1COCC(C[N+](C)(C)C)O1.[I-] (racemic; form 1) | 2.09 | 11.5 |  |  |  | 7.76 | 1 |  |  | 5.65 | 1 |  |
